Measured values reported in paper PMC12796733 (The Journal of Biological Chemistry, 2025).

How the values were obtained:
Assay type in all cases: binding
Shp = biological target: T1, Shp (Streptococcus pyogenes, UniProt Q06A48); experiment: isothermal titration calorimetry; settings: PBS pH 7.4, 5% DMSO, 25 °C; one set of sites
T1 construct: E. coli BL21(DE3)

NEAT2 [1] = biological target: T2, NEAT2 (Streptococcus pyogenes, UniProt Q99YA0); experiment: differential scanning calorimetry; settings: PBS; 1 mg/ml protein
T2 construct: gene shr; NEAT2 domain, Ala970-Thr1129 of 1275-residue Shr; E. coli BL21(DE3)

Linker-NEAT1 [2] = biological target: T3, Linker-NEAT1 (Streptococcus pyogenes, UniProt Q99YA0); experiment: isothermal titration calorimetry; settings: PBS pH 7.4, 5% DMSO, 25 °C; one set of sites
T3 construct: gene shr; linker + NEAT1 domain, Ser294-Gly502 of 1275-residue Shr; E. coli BL21(DE3)

Linker-NEAT1 [3] = biological target: T3, Linker-NEAT1; experiment: differential scanning calorimetry; settings: PBS; 1 mg/ml protein
NEAT2 [4] = biological target: T2, NEAT2; experiment: isothermal titration calorimetry; settings: PBS pH 7.4, 5% DMSO, 25 °C; one set of sites

T2 sequence (Q99YA0 970-1129): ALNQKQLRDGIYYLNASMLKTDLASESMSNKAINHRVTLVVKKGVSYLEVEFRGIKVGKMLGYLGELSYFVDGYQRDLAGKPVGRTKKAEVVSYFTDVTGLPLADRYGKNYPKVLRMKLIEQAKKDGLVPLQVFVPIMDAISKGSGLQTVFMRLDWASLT
T3 sequence (Q99YA0 294-502): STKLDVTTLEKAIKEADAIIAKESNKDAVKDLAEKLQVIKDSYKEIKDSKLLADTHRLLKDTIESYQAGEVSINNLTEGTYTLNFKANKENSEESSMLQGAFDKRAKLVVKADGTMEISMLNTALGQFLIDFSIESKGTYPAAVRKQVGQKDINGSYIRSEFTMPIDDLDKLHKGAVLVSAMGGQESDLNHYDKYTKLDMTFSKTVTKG
T1 sequence (Q06A48 entry or part of it): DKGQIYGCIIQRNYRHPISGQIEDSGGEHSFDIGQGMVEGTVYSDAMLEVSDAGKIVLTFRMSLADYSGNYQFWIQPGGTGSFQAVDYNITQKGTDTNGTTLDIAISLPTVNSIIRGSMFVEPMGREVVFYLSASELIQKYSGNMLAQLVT

heme
Kd (Shp): < 0.00081 µM
Tm with heme (apo 58.1 °C) (NEAT2 [1]): 64.0 °C
Kd (Linker-NEAT1 [2]): 0.032 ± 0.0234 µM
Tm with heme (apo 34.6 °C) (Linker-NEAT1 [3]): 41.1 °C
Kd (NEAT2 [4]): 0.0127 ± 0.0103 µM
